Measured values reported in US20160317560A1, “PARTICLES CONTAINING PHOSPHOLIPIDS OR BIOACTIVE FATTY ACIDS AND USES THEREOF” (THE UNIVERSITY OF NORTH CAROLINA AT CHAPEL HILL, priority 2013, published 2016).
Entries after “also recorded” stand apart in the source; their conditions may differ.

Tests used:
2D2 T cells = experiment: Murine DC/T-cell co-culture (mouse dendritic cells and MOG-specific 2D2 T cells), T-cell activation and Treg induction; type: cell-based; settings: for IFN-γ production by T cells: in the presence of MOG antigen, 50 μM PS (FIG. 11A)
Source text: FIG. 5 depicts a murine model of multiple sclerosis (2D2) for evaluating T-cell activation in murine DC/T-cell co-culture.
FIG. 11A-B depicts programming regulatory T cells with phosphatidylserine Nanoparticles. A) Flow plots of 2D2 T cells after co-stimulation with bone-marrow derived dendritic cells+/−the MOG peptide. […] (*=p<0.05).
Using a co-culture model with mouse dendritic cells and 2D2 T cells specific for the MOG-peptide, Th1-skewed IFN-γ producing T cells were turned into FOXP3+, IL-10 producing T regulatory cells (FIGS. 10 and 11). In the absence of antigen, roughly 20% of all T cells were programmed into anti-inflammatory IL-10 producing FOXP3+ regulatory T cells. This was about a 10-15 fold increase as compared to blank PLGA particles controls. This was about 4-5 fold increase over the soluble PS control at the same dose. This is an exceptionally high % of T regulatory cells in any in vitro or in vivo system.
In the presence of soluble MOG antigen, about 10% of T cells produced IFN-γ in the blank 80×320 nm PLGA control group. […] The presence of antigen led to a 10% IL-10+, FOXP3+ T regulatory population in the presence of blank PLGA particles or soluble PS. PS-PLGA particles induced 2 fold higher levels of this regulatory T cell population, about 20% of all T cells.

[1] = system: primary progressive multiple sclerosis; experiment: Murine model of primary progressive multiple sclerosis; type: in vivo; settings: 14 day study
Source text: FIG. 15 depicts a murine model of primary progressive multiple sclerosis. Reproduced from the Reeves Foundation. FIG. 16 provides data showing PS-loaded particles reduce MS symptoms. The study was 14 days to emphasize the suppression of the neuroinflammation ramp-up during the model.

[2] = system: bone marrow derived mouse macrophages; experiment: Inflammasome activation in bone marrow derived mouse macrophages; type: cell-based; settings: 1 μm and 80×320 nm particles; soluble form at the same dose; FIG. 19
Source text: FIG. 19. Anti-inflammatory Programming Particles.
Disclosed herein are data showing emergent properties when bioactive fatty acids and phospholipids are delivered via the particles described herein. […] Other phospholipids and bioactive fatty acids could have similar properties when particulated as described herein.

## CCCCCCCC/C=C\CCCCCCCC(=O)O[C@H](COC(=O)CCCCCCCCCCCCCCCCC)COP(=O)(O)OC[C@H](N)C(=O)[O-].[Na+] [PS SOL, Phosphatidylserine]
2D2 T cells; FIG. 11A, 50 μM PS
  FOXP3+ T cells: not seen
2D2 T cells
  IFN-γ production by T cells: inhibit IFN-γ production
2D2 T cells; listed as soluble PS
  IFN-γ production by T cells: inhibited to baseline levels; also recorded: can inhibit IFN-γ as well as particulate PS
2D2 T cells; listed as soluble phosphatidylserine (PS)
  IFN-γ production by T cells: dampen IFN-γ production
2D2 T cells; presence of soluble MOG antigen
  IL-10+, FOXP3+ T regulatory population, % of all T cells: 10%
[1]; (+/−)
  Maximum Score: 0.8 (+/−0.2)
[1]; (affected/total animals)
  Disease Incidence: 83% (10/12)
[2]
  inflammasome activation / signaling: exacerbated inflammation
